In patent US9303042B2, “Triazolothienopyrimidine compound inhibitors of urea transporters and methods of using inhibitors” (The Regents of the University of California, priority 2012, dated 2016):

Legend:
[1] = In vitro metabolic stability in hepatic microsomes; format: in vitro ADME, rat
Procedure: Compounds, each at 5 μM, were incubated for specified times at 37° C. with rat liver microsomes (1 mg protein/ml; Sigma-Aldrich, St. Louis, Mo.) in potassium phosphate buffer (100 mM) containing 1 mM NADPH. The mixture was then chilled on ice, and 0.5 ml of ice-cold ethyl acetate was added.

UT-A1 = target: T1, UT-A1 (Rattus norvegicus, UniProt Q62668); test: Transepithelial urea transport in MDCK cells stably expressing UT-A1; format: cell-based; conditions: UTBinh-14 10 μM, forskolin
T1 construct: expressed in transfected cells; host or cells: MDCK cells (MDCK-UT-A1), obtained as described in cited literature
T1 sequence (Q62668 1-929): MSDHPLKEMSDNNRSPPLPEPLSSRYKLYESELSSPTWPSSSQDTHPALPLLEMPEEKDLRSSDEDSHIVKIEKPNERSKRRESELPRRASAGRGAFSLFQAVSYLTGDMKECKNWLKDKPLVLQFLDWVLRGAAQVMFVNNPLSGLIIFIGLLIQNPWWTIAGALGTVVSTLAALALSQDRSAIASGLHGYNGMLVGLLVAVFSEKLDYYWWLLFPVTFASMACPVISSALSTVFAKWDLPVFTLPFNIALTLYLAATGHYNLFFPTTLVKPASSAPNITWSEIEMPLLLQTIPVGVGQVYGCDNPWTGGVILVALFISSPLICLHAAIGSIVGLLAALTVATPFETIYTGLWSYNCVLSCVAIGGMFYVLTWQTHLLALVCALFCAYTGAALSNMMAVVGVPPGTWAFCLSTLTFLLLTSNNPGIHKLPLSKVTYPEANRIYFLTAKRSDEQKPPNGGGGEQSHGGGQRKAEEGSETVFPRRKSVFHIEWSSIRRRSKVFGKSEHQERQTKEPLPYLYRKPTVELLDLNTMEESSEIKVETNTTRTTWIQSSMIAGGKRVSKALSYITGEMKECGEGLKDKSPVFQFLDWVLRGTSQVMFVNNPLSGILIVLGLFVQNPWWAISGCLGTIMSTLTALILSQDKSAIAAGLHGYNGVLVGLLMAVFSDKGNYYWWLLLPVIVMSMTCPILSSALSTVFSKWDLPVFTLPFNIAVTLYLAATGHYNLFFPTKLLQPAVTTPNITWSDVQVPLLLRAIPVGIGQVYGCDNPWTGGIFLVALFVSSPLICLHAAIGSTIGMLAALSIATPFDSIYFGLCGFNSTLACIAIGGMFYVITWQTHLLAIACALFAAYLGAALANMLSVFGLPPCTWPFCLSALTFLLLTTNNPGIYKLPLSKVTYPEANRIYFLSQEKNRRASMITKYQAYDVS
Procedure: (§1) UT-B selectivity and cytotoxicity were studied. Because of sequence similarities between UT-B and UT-A isoforms, UT-A inhibition was measured. Transepithelial urea transport was measured in MDCK cells stably expressing UT-A1, UT-A3, and UT-B. UT-A1 and UT-A3 are cAMP-regulated urea transporters expressed in kidney tubule epithelia (see, e.g., Frohlich et al., Am. J. Physiol. Cell Physiol. 291:C600-606 (2006); Tickle et al., Am. J. Physiol. Regul. Integr. Comp Physiol 0.297: R323-329 (2009); Stewart et al., Am. J. Physiol. Renal Physiol. 292:F1157-63 (2006)). MDCK cells were cultured on collagen-coated porous filters for measurement of urea accumulation in the apical solution following addition of urea to the basolateral solution.
(§2) cDNAs encoding mouse UT-A3 and UT-B were cloned into pcDNA3.1 and used to generate stably transfected MDCK cell lines. MDCK cells stably expressing rat UT-A1 (MDCK-UT-A1) (see, e.g., Frohlich et al., supra) were obtained as described (see, e.g., Levin et al., FASEB J., supra). Cells were cultured in DMEM containing 10% FBS and 0.5 mg/mL G418. […] Urea flux in the basolateral-to-apical direction across unstimulated and forskolin-stimulated cell layers was measured in response to a 15-mM urea gradient. […]

UT-B = target: T2, UT-B (Mus musculus, UniProt Q8VHL0); test: Transepithelial urea transport in MDCK cells stably expressing UT-B; format: cell-based; conditions: UTBinh-14 10 μM
T2 sequence (Q8VHL0 1-384): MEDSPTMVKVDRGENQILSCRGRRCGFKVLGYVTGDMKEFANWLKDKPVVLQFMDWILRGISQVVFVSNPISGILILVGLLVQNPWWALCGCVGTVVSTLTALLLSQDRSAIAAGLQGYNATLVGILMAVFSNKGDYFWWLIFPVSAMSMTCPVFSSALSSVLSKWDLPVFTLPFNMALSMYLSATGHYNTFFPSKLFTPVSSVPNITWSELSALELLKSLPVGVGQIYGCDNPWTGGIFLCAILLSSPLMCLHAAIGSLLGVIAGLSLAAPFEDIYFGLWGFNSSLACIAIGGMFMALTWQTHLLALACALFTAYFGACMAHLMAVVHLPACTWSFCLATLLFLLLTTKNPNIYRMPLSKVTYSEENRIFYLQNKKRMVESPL
Procedure: as §1, §2

Compound: CCc1ccc(S(=O)(=O)c2nnn3c2nc(NCc2cccs2)c2sccc23)cc1 [UTBinh-14, [3-(4-Ethyl-benzenesulfonyl)-thieno[2,3-e][1,2,3]triazolo[1,5-a]pyrimidin-5-yl]-thiophen-2-ylmethylamine]
- t1/2 for disappearance in hepatic microsomes ([1]; hepatic microsomes, NADPH): approximately 2.8 min
- % Remaining ([1]; parent molecule after 30 min incubation with rat liver microsomes): <5%
- inhibition of UT-A1 facilitated urea transport (UT-A1): little inhibition
- inhibition of UT-B facilitated urea transport (UT-B): strongly inhibited
